According to ChEMBL document CHEMBL1133620, “Selective cyclooxygenase-2 inhibitors: heteroaryl modified 1,2-diarylimidazoles are potent, orally active antiinflammatory agents” (J Med Chem, 2000):

Experiments:
[1] = molecular target: Prostaglandin G/H synthase 1 (Homo sapiens, UniProt P23219)
Homo sapiens [2] = species on record: Homo sapiens; experiment: tissue or blood
Homo sapiens [3] = species on record: Homo sapiens; experiment: tissue or blood; remark: listed apart in the source
Rattus norvegicus [4] = species on record: Rattus norvegicus; experiment: animal or person; conditions: read-out: Inhibition
Rattus norvegicus [5] = species on record: Rattus norvegicus; experiment: animal or person; format: functional
Rattus norvegicus [6] = species on record: Rattus norvegicus; experiment: animal or person; format: functional; remark: listed apart in the source
Rattus norvegicus [7] = species on record: Rattus norvegicus; experiment: animal or person; format: functional; remark: listed apart in the source
Rattus norvegicus [8] = species on record: Rattus norvegicus; conditions: in vivo, po, 100 mg/kg
Rattus norvegicus [9] = species on record: Rattus norvegicus; conditions: in vivo, po, 100 mg/kg; remark: listed apart in the source
in vivo [10] = conditions: rat, iv, 10 mg/kg
Rattus norvegicus [11] = species on record: Rattus norvegicus; conditions: in vivo, po, 100 mg/kg; remark: listed apart in the source
Rattus norvegicus [12] = species on record: Rattus norvegicus; conditions: in vivo, po, 100 mg/kg; remark: listed apart in the source
in vivo [13] = conditions: rat, iv, 10 mg/kg; remark: listed apart in the source
Rattus norvegicus [14] = species on record: Rattus norvegicus; conditions: in vivo, po, 100 mg/kg; remark: listed apart in the source
in vivo [15] = conditions: rat, iv, 10 mg/kg; remark: listed apart in the source
Rattus norvegicus [16] = species on record: Rattus norvegicus; conditions: in vivo, po, 16 mg/kg
Rattus norvegicus [17] = species on record: Rattus norvegicus; conditions: in vivo, po, 16 mg/kg; remark: listed apart in the source
Rattus norvegicus [18] = species on record: Rattus norvegicus; conditions: in vivo, po, 100 mg/kg; remark: listed apart in the source
in vivo [19] = conditions: rat, iv, 2 mg/kg
[20] = Rattus norvegicus, read-out: ED50

Prostaglandin G/H synthase 1, sequence (P23219 whole entry): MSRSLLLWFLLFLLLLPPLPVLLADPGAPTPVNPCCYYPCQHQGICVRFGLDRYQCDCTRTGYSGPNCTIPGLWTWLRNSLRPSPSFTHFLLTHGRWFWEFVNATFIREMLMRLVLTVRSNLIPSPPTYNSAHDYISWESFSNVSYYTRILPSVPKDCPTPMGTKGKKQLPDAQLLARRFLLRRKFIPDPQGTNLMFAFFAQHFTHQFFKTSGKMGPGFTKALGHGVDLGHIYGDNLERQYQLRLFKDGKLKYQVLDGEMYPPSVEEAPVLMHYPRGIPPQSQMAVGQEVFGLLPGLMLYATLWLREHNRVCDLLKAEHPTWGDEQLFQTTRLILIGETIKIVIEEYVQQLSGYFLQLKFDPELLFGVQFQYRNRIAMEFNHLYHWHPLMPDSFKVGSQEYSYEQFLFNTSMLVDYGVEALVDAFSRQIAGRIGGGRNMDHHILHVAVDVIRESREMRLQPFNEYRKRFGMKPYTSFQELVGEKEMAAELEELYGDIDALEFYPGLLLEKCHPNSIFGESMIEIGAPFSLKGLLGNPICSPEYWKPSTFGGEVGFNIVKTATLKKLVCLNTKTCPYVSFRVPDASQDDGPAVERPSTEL

SMILES	IC50 [1] [µM]	inhibition in vivo at 2 mg/kg (Rattus norvegicus [4]) [%]	other results
CS(=O)(=O)c1ccc(-n2cc(C(F)(F)F)nc2-c2cccs2)cc1	–	24	–
Cc1nc(-c2nc(C(F)(F)F)cn2-c2ccc(S(C)(=O)=O)cc2)cs1	–	73	–
Cc1ncccc1-c1nc(C(F)(F)F)cn1-c1ccc(S(N)(=O)=O)cc1	–	100	ED50 (Rattus norvegicus [5]): 18 mg/kg; ED50 (Rattus norvegicus [6]): 1 mg/kg; ED50 (Rattus norvegicus [7]; [20]): 6.9 mg/kg; No. of animals with damage (Rattus norvegicus [11]): 0; No. of animals with damage (Rattus norvegicus [12]): 0; half-life (in vivo [13]): 4.85 h
Cc1ccccc1-c1nc(C(F)(F)F)cn1-c1ccc(S(C)(=O)=O)cc1	–	–	ED50 (Rattus norvegicus [7]; [20]): 18 mg/kg
CS(=O)(=O)c1ccc(-n2cc(C(F)(F)F)nc2-c2cnc3ccccc3c2)cc1	–	90	–
NS(=O)(=O)c1ccc(-n2cc(C(F)(F)F)nc2-c2cccs2)cc1	–	95	–
Cn1cc(-c2nc(C(F)(F)F)cn2-c2ccc(S(C)(=O)=O)cc2)c2ccccc21	–	0	–
CS(=O)(=O)c1ccc(-n2cc(C(F)(F)F)nc2-c2ccccc2)cc1	–	–	ED50 (Rattus norvegicus [7]; [20]): 0.15 mg/kg
Cc1cccc(-c2nc(C(F)(F)F)cn2-c2ccc(S(N)(=O)=O)cc2)n1	–	100	ED50 (Rattus norvegicus [5]): 20.3 mg/kg; ED50 (Rattus norvegicus [6]): 0.64 mg/kg; ED50 (Rattus norvegicus [7]; [20]): 8.2 mg/kg; No. of animals with damage (Rattus norvegicus [8]): 0; No. of animals with damage (Rattus norvegicus [9]): 0
Cc1ccc(-c2nc(C(F)(F)F)cn2-c2ccc(S(N)(=O)=O)cc2)cn1	–	100	–
CS(=O)(=O)c1ccc(-n2cc(C(F)(F)F)nc2-c2cccnc2)cc1	–	100	ED50 (Rattus norvegicus [5]): 8.2 mg/kg; ED50 (Rattus norvegicus [6]): 0.25 mg/kg; ED50 (Rattus norvegicus [7]; [20]): 5.4 mg/kg; No. of animals with damage (Rattus norvegicus [8]): 0; No. of animals with damage (Rattus norvegicus [14]): 0; half-life (in vivo [15]): 11.6 h; IC50 (Homo sapiens [2]): 41.6 µM; IC50 (Homo sapiens [3]): 0.2 µM
Cc1cccnc1-c1nc(C(F)(F)F)cn1-c1ccc(S(C)(=O)=O)cc1	–	100	ED50 (Rattus norvegicus [6]): 0.3 mg/kg; ED50 (Rattus norvegicus [7]): 35%
COc1ccc(-c2nc(C(F)(F)F)cn2-c2ccc(S(C)(=O)=O)cc2)cn1	–	100	–
NS(=O)(=O)c1ccc(-n2cc(C(F)(F)F)nc2-c2cncc(Br)c2)cc1	–	26	–
Cc1ccnc(-c2nc(C(F)(F)F)cn2-c2ccc(S(C)(=O)=O)cc2)c1	–	84	–
Cc1ccc(-c2nc(C(F)(F)F)cn2-c2ccc(S(C)(=O)=O)cc2)cn1	–	93	ED50 (Rattus norvegicus [5]): 33 mg/kg; ED50 (Rattus norvegicus [6]): 0.2 mg/kg; ED50 (Rattus norvegicus [7]; [20]): 41 mg/kg
Cc1nc(-c2nc(C(F)(F)F)cn2-c2ccc(S(C)(=O)=O)cc2)co1	> 100	0	–
CS(=O)(=O)c1ccc(-n2cc(C(F)(F)F)nc2-c2nccc3ccccc23)cc1	–	60	–
Cc1cccc(-c2nc(C(F)(F)F)cn2-c2ccc(S(C)(=O)=O)cc2)n1	–	92	–
COc1ccc2c(c1)c(CC(=O)O)c(C)n2C(=O)c1ccc(Cl)cc1 [INDOMETHACIN]	–	–	ED50 (Rattus norvegicus [6]): 0.1 mg/kg; No. of animals with damage (Rattus norvegicus [16]): 6; No. of animals with damage (Rattus norvegicus [17]): 6
Cc1cncc(-c2nc(C(F)(F)F)cn2-c2ccc(S(C)(=O)=O)cc2)c1	–	75	–
Cc1nc(-c2nc(C(F)(F)F)cn2-c2ccc(S(N)(=O)=O)cc2)cs1	–	100	ED50 (Rattus norvegicus [5]): 14 mg/kg; ED50 (Rattus norvegicus [6]): 0.57 mg/kg; ED50 (Rattus norvegicus [7]; [20]): 13.4 mg/kg; No. of animals with damage (Rattus norvegicus [8]): 0; No. of animals with damage (Rattus norvegicus [18]): 0; half-life (in vivo [19]): 3.4 h
Cc1ccc(-c2nc(C(F)(F)F)cn2-c2ccc(S(N)(=O)=O)cc2)nc1	302	100	–
Cc1cccnc1-c1nc(C(F)(F)F)cn1-c1ccc(S(N)(=O)=O)cc1	–	100	–
Cc1ccc(-c2nc(C(F)(F)F)cn2-c2ccc(S(C)(=O)=O)cc2)nc1	–	97	ED50 (Rattus norvegicus [5]): 20 mg/kg; ED50 (Rattus norvegicus [6]): 1 mg/kg
CS(=O)(=O)c1ccc(-n2cc(C#N)nc2-c2cccnc2)cc1	> 100	–	–

More lines, main results first:

IC50 [1] [µM]	SMILES	inhibition in vivo at 2 mg/kg (Rattus norvegicus [4]) [%]	other results
> 1000	CS(=O)(=O)c1ccc(-n2cc(C(F)(F)F)nc2-c2ccccn2)cc1	100	IC50 (Homo sapiens [2]): > 10 µM; IC50 (Homo sapiens [3]): 0.24 µM
> 1000	CS(=O)(=O)c1ccc(-n2cc(C(F)(F)F)nc2-c2cc(Br)cs2)cc1	75	–
> 100	Cc1cn(-c2ccc(S(C)(=O)=O)cc2)c(-c2cccnc2)n1	–	–
> 1000	Cc1cncc(-c2nc(C(F)(F)F)cn2-c2ccc(S(N)(=O)=O)cc2)c1	96	ED50 (Rattus norvegicus [5]): 32 mg/kg; ED50 (Rattus norvegicus [6]): 0.67 mg/kg; ED50 (Rattus norvegicus [7]; [20]): 7.5 mg/kg; No. of animals with damage (Rattus norvegicus [8]): 0; No. of animals with damage (Rattus norvegicus [9]): 0; half-life (in vivo [10]): 4.96 h
> 1000	Cc1cc(-c2nc(C(F)(F)F)cn2-c2ccc(S(N)(=O)=O)cc2)no1	92	–
> 1000	CS(=O)(=O)c1ccc(-n2cc(C(F)(F)F)nc2-c2cncc(Br)c2)cc1	90	–
> 1000	Cc1ncc(-c2nc(C(F)(F)F)cn2-c2ccc(S(N)(=O)=O)cc2)s1	75	–
> 100	Cc1ncccc1-c1nc(C(F)(F)F)cn1-c1ccc(S(C)(=O)=O)cc1	81	–
> 1000	Cc1ccsc1-c1nc(C(F)(F)F)cn1-c1ccc(S(C)(=O)=O)cc1	11	–
32	CS(=O)(=O)c1ccc(-n2cc(C(F)(F)F)nc2-c2cc3ccccc3cn2)cc1	–	–
> 1000	NS(=O)(=O)c1ccc(-n2cc(C(F)(F)F)nc2-c2cccnc2)cc1	100	–
> 100	Cc1ccncc1-c1nc(C(F)(F)F)cn1-c1ccc(S(N)(=O)=O)cc1	–	–
> 100	CS(=O)(=O)c1ccc(-n2cc(C(F)(F)F)nc2-c2cccc3c2OCO3)cc1	11	–
84	Cc1ccnc(-c2nc(C(F)(F)F)cn2-c2ccc(S(N)(=O)=O)cc2)c1	75	–
> 100	Cc1ccncc1-c1nc(C(F)(F)F)cn1-c1ccc(S(C)(=O)=O)cc1	–	–
> 100	NS(=O)(=O)c1ccc(-n2cc(C(F)F)nc2-c2cccnc2)cc1	19	–
> 1000	CS(=O)(=O)c1ccc(-n2cc(CO)nc2-c2cccnc2)cc1	–	–
> 100	COc1cncc(-c2nc(C(F)(F)F)cn2-c2ccc(S(C)(=O)=O)cc2)c1	–	–
> 1000	Cc1csc(-c2nc(C(F)(F)F)cn2-c2ccc(S(N)(=O)=O)cc2)n1	100	ED50 (Rattus norvegicus [5]): 18.5 mg/kg; ED50 (Rattus norvegicus [6]): 0.33 mg/kg; ED50 (Rattus norvegicus [7]; [20]): 13.4 mg/kg
> 100	CS(=O)(=O)c1ccc(-n2cc(C(F)F)nc2-c2cccnc2)cc1	–	–
